Seven compounds from patent publication EP4711365A1 (Shanghai Hansoh Biomedical Co., Ltd., priority 2023, dated 2024) can be followed below.

Molecules are shown by their SMILES.

A short description of data set [1]: Pharmacokinetic assay in Wistar rats, oral. The settings on record: rat, in vivo, 30 mg/kg.
Description: Experimental objective: to study the pharmacokinetic behaviours of the compounds of the present invention in the body (plasma) of Wistar rats as test animals after oral administration at a dose of 30 mg/kg. • 2. Experimental scheme • 2.1 Test drugs: the examples of the present invention, prepared in house. • 2.2 Test animals: Wistar rats (female, 3 rats per group), from Beijing Vital River Laboratory Animal Technology Co., Ltd., with the animal production license no.
Solutol HS15 was melted in a water bath at 50-60°C, and then 50 mL of the melted Solutol HS15 was added to 450 mL of ultrapure water. The mixture was stirred and sonicated to obtain 500 mL of 10% Solutol HS15 solution. The compound was weighed, and according to the total administration volume, 30% PEG solution was first added. The mixture was shaken uniformly and sonicated until a clear solution was obtained. Subsequently, 70% (10% Solutol) in water was added, resulting in a colourless and clear solution with a concentration of 3.0 mg/mL.
2.4 Administration scheme: After overnight fasting, 3 female Wistar rats per group were administered orally (PO) at a dose of 30 mg/kg with an administration volume of 10 mL/kg.
• 1) To 50 uL of plasma sample was added 250 uL of acetonitrile for precipitation, and the mixture was mixed and then centrifuged at 4°C at 4000 rpm for 20 minutes. • 2) The treated supernatant solution was taken and subjected to LC/MS/MS to analyse the concentration of the test compounds. LC/MS/MS analysis instrument: AB Sciex API-4000 Qtrap-Shimadzu Controller-CBM20A.
• Chromatographic column: Waters Xbridge C18 3.5 um 2.1*50 mm • Mobile phase: solution A: 0.1% formic acid in water, and solution B: 0.1% formic acid in acetonitrile • Flow rate: 0.6 mL/min • Elution time: 0-3.5 minutes, with eluents as follows:
In data set [2] the test system is Groα secretion by HT-29 cells. The data set is described as follows: Inhibition of Groα secretion by HT-29 cells stimulated with IL-17A (ELISA). Type of data set: cell-based, Human. Particulars: Homo sapiens, HT-29, 48 h, IL-17A 30 ng/ml, Groα in supernatant. The procedure:
Test example 2 Assay for inhibitory effect of compounds of the present invention against Groα secretion by HT-29 cells
Experimental objective: to measure the inhibitory effect of the compounds against Groα secretion by HT-29 cells, thereby evaluating the inhibition of the compounds on IL-17A pathway.
Experimental method: A cell suspension at 50,000 cells/ml was prepared, and 200 µl of the cell suspension was added to each well of a 96-well plate, i.e., 10,000 cells/well. The plate was cultured overnight. In the 96-well V-bottom plate, 5 mM compound solution was serially diluted 3-fold using DMSO, and the compound from each well was diluted 100-fold using a complete culture medium. IL-17A protein (R&D, #BT7955-025/CF) with a stock concentration of 100 µg/ml was diluted 333.33-fold using a complete culture medium. The compound and IL-17A were mixed at a volume ratio of 1:1 and incubated at 37°C for 30 minutes. 50 µl of a mixture of the compound and IL-17A was added to cell wells, and the final concentration of IL-17A protein was 30 ng/ml.
The mixture was incubated in a 37°C, 5% CO2 cell culture incubator for 48 hours. The concentration of Groα in the supernatant was determined by ELISA method using Human Groα Valukin Elisa kit (Biotechne, # VAL139), and the absorbance intensity at 450 nm was measured using a microplate reader (PE, EnVision2105). Data were analysed using GraphPad Prism 8.3.0.
Experimental data processing method: Data were analysed using GraphPad Prism 8.3.0.
Inhibition rate% = [(average value of positive control wells - value of sample wells)/(average value of positive control wells - average value of negative control wells)] × 100%, where the sample wells are wells containing cells plus compounds at different concentration gradients, the positive control wells are wells containing cells plus IL-17A, and the negative control wells are wells containing culture medium plus IL-17A.
Curve fitting: The IC50 value was obtained by curve fitting based on the inhibition rate (%) at each concentration using the log(inhibitor) vs. responseVariable slope (four parameters) in GraphPad Prism 6.0, and the calculation equation was Y = Bottom + (Top-Bottom)/(1+10^((LogIC50-X)*HillSlope)).
A general note: An ELISA detects its analyte on a solid surface through an enzyme-linked reagent.

By AUC(0-t) is commonly meant exposure summed from dosing to a finite time, without extrapolation to infinity. As a reminder, the Cmax is the peak of the concentration-time curve. By Tmax is commonly meant the time from dosing to the highest level. One may read the half-life as the time needed for the level to fall by half in the phase considered. The term IC50 denotes the concentration that inhibits the measured activity by half. A lower IC50 goes with greater potency in that assay. `[2H]C([2H])([2H])C([2H])([2H])n1nccc1C(=O)NC(C(=O)Nc1ncc(C(CN2CC(C)OCC2C)N2CC(F)(F)CCC2=O)s1)C1CCC(C)CC1` [Example 864, N-((S)-2-((5-((R)-1-(5,5-difluoro-2-oxopiperidin-1-yl)-2-((2R,5S)-2,5-dimethylmorpholino)ethyl)thiazol-2-yl)amino)-1-((1r,4S)-4-methylcyclohexyl)-2-oxoethyl)-1-(ethyl-d5)-1H-pyrazole-5-carboxamide]: in data set [1], the area under the curve AUC(0-t) came to 15700 ng·h/mL, the Cmax worked out at 1600 ng/mL, the Tmax is 4 h and the half-life is 3.7 h. Further, inhibition in data set [2] was half-maximal at 3 nM (IC50).

As to `[2H]C([2H])([2H])C([2H])([2H])n1nccc1C(=O)N[C@H](C(=O)Nc1ncc([C@@H](CN2CCC(CF)CC2)N2CC(F)(F)CCC2=O)s1)[C@H]1CC[C@H](C)CC1` [Example 928], in data set [1], the exposure AUC(0-t) stood at 18900 ng·h/mL, the highest level (Cmax) was 2160 ng/mL, the Tmax was found to be 4 h and the half-life is 4.5 h. Further, half-maximal inhibition in data set [2] (IC50) required 4 nM.

`[2H]C([2H])([2H])C([2H])([2H])n1nccc1C(=O)N[C@H](C(=O)Nc1ncc([C@@H](CN2CCC(C(F)F)CC2)N2CC(F)(F)CCC2=O)s1)[C@H]1CC[C@H](C)CC1` [Example 938]: in data set [1], the area under the curve AUC(0-t) worked out at 12500 ng·h/mL, the Cmax was 1240 ng/mL, the Tmax was determined as 4 h and the half-life is 6 h. This compound had an IC50 in data set [2] of 4.4 nM.

Consider `[2H]C([2H])([2H])C([2H])([2H])n1nccc1C(=O)N[C@H](C(=O)Nc1ncc([C@@H](CN2CCC(C(F)(F)F)CC2)N2CC(F)(F)CCC2=O)s1)[C@H]1CC[C@H](C)CC1` [Example 948], for which, in data set [1], the exposure AUC(0-t) was 18800 ng·h/mL, the Cmax was determined as 1710 ng/mL, the Tmax worked out at 4 h and the half-life was 9.3 h. Further, half-maximal inhibition in data set [2] (IC50) was put at 6.5 nM.

As for `[2H]C([2H])([2H])C([2H])([2H])n1nccc1C(=O)N[C@H](C(=O)Nc1ncc([C@@H](CN2CCC3(CC2)CC3(F)F)N2CC(F)(F)CCC2=O)s1)[C@H]1CC[C@H](C)CC1` [Example 958], in data set [1], the AUC(0-t) came to 13200 ng·h/mL, the Cmax was found to be 1500 ng/mL, the Tmax came out at 4 h and the half-life is 9.4 h. The IC50 in data set [2] came to 2.3 nM.

With `[2H]C([2H])([2H])OC1CCN(CC(c2cnc(NC(=O)C(NC(=O)c3ccnn3C([2H])([2H])C([2H])([2H])[2H])C3CCC(C)CC3)s2)N2CC(F)(F)CCC2=O)CC1F` (centres unmarked) [Example 992], in data set [1], the exposure AUC(0-t) is 24600 ng·h/mL, the Cmax is 4930 ng/mL, the Tmax is 2 h and the half-life is 2.9 h. The same compound displayed a half-maximal inhibitory concentration (IC50) in data set [2] of 3.5 nM.

With `[2H]C([2H])([2H])O[C@@H]1CCN(C[C@H](c2cnc(NC(=O)[C@@H](NC(=O)c3ccnn3C([2H])([2H])C([2H])([2H])[2H])[C@H]3CC[C@H](C)CC3)s2)N2CC(F)(F)CCC2=O)C[C@@H]1F` [Example 994], in data set [1], the AUC(0-t) stood at 13100 ng·h/mL, the Cmax turned out to be 2000 ng/mL, the time to peak (Tmax) is 4 h and the half-life was 2.4 h. Further, in data set [2], the IC50 came out at 9 nM.
